Data: patent publication US20220324835A1 (Nurix Therapeutics, Inc., priority 2018, published 2022)

Tests used:
Cbl-b [1] = biological target: T1, Cbl-b (Homo sapiens, UniProt Q13191); assay: Cbl-b activity assay (Cbl-b inhibition assay), TR-FRET of Cbl-b interaction with UbcH5B-Ub; assay type: biochemical
Outline: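 UbcH5B (C85K) conjugated to N-terminally Bodipy-Fluorescein-labeled ubiquitin served as the fluorescent partner. After compound preincubation, Src kinase (60 nM) with 1 mM ATP and 5 mM MgCl2 (final) was added for 1.5 h, followed by a further 1 h incubation. Some values were obtained with 50 mM NaCl and 30 nM Src.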

Cbl-b [2] = biological target: T1, Cbl-b; assay: Cbl-b inhibition assay (Cbl-b activity assay, FRET, Biological Example 1; 100 mM NaCl, 60 nM Src kinase); assay type: biochemical; conditions: upper bound stated in text lists; read-out: IC50 values in the Cbl-b inhibition assay of Biological Example 1
Outline: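 Inhibitor activity is measured as reduced terbium-to-fluorescein FRET between streptavidin-terbium on biotinylated Cbl-b and Bodipy-fluorescein ubiquitin carried by an irreversible UbcH5B-Ub conjugate, binding of which depends on Src phosphorylation of Cbl-b.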

Cbl-b (residues 36-427) = Cbl-b (residues 36-427) (Homo sapiens, UniProt Q13191); assay: Cbl-b binding assay (SPR, Biacore T200); conditions: 20° C., 1:1 binding model
Outline: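 Steps: capture protein on NeutrAvidin surface; inject compound dilutions (8 or 10 points from 100 or 50 μM) 50 s; allow 90-180 s dissociation; regenerate 20 s with 0.3 M NaCl. Runs at 20° C in HEPES pH 7.5/100 mM NaCl/2% DMSO; 1:1 fitting.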

[3] = assay buffer with 100 mM NaCl, 60 nM Src kinase, read-out: Cbl-b activity IC50

Chain of Cbl-b (residues 36-427) (Q13191 36-427): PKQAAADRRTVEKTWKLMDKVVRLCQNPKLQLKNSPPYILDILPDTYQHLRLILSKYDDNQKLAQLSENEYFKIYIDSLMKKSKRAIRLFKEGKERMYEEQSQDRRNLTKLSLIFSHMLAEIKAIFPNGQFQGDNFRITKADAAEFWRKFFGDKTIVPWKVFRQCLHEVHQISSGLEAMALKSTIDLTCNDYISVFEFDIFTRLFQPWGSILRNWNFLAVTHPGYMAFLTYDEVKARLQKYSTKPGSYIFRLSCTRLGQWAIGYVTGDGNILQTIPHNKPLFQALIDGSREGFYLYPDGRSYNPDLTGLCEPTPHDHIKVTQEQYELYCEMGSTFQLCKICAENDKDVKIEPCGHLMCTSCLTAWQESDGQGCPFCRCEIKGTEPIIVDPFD
T1 sequence (Q13191 36-427): as above

Structure (SMILES)	IC50 (Cbl-b [1]; [3])	IC50 (Cbl-b [2])	Kd (Cbl-b (residues 36-427))	IC50 (Cbl-b [1]; * assay buffer containing 50 mM NaCl instead of 100 mM NaCl and 30 nM Src kinase instead of 60 nM, read-out: Cbl-b activity IC50 (μM)*)
C[C@H](Sc1nncn1C)c1ccnc(NC(=O)c2cc3c(cn2)CCCC3)c1 [Compound 109, (S)-N-(4-(1-((4-methyl-4H-1,2,4-triazol-3-yl)thio)ethyl)pyridin-2-yl)-5,6,7,8-tetrahydroisoquinoline-3-carboxamide]	3 to 10 µM	≤ 10 µM	3 to 10 µM	–
C[C@H](Sc1nncn1C)c1cccc(NC(=O)c2cc(C(=O)N3C[C@@H](O)C[C@H]3C)ccn2)c1 [Compound 152, 4-((2R,4S)-4-hydroxy-2-methylpyrrolidine-1-carbonyl)-N-(3-((S)-1-((4-methyl-4H-1,2,4-triazol-3-yl)thio)ethyl)phenyl)picolinamide]	3 to 10 µM	≤ 10 µM	3 to 10 µM	–
CC(c1cccc(NC(=O)c2ccc(CO)c(C3CC3)n2)c1)C(F)(F)c1nncn1C (stereo not shown) [Compound 287, 6-cyclopropyl-N-(3-(1,1-difluoro-1-(4-methyl-4H-1,2,4-triazol-3-yl)propan-2-yl)phenyl)-5-(hydroxymethyl)picolinamide]	0.1 to 0.3 µM	≤ 0.5 µM	1 to 3 µM	–
C[C@H](Cc1nncn1C)c1cccc(NC(=O)c2cc(C(=O)N3CCC(C)(O)CC3)ccn2)c1 [Compound 227, (R)-4-(4-hydroxy-4-methylpiperidine-1-carbonyl)-N-(3-(1-(4-methyl-4H-1,2,4-triazol-3-yl)propan-2-yl)phenyl)picolinamide]	1 to 3 µM	≤ 10 µM	3 to 10 µM	–
CC(c1cccc(N2Cc3c(cccc3C(F)(F)F)C2=O)c1)C(F)(F)c1nncn1C (stereo not shown) [Compound 294, 2-(3-(1,1-difluoro-1-(4-methyl-4H-1,2,4-triazol-3-yl)propan-2-yl)phenyl)-4-(trifluoromethyl)isoindolin-1-one]	0.301 to 1 µM	≤ 0.5 µM	< 0.1 µM	–
C[C@H](Cc1nncn1C)c1cccc(NC(=O)c2cc(C(=O)N3CC[C@H](C#N)C3)ccn2)c1 [Compound 236, 4-[(3S)-3-cyanopyrrolidine-1-carbonyl]-N-[3-[(2R)-1-(4-methyl-4H-1,2,4-triazol-3-yl)propan-2-yl]phenyl]pyridine-2-carboxamide]	1 to 3 µM	≤ 10 µM	1 to 3 µM	–
C[C@H](Sc1nncn1C)c1cccc(NC(=O)c2cc(C(=O)N3CCC[C@H](O)C3)ccn2)c1 [Compound 150, 4-((S)-3-hydroxypiperidine-1-carbonyl)-N-(3-((S)-1-((4-methyl-4H-1,2,4-triazol-3-yl)thio)ethyl)phenyl)picolinamide]	3 to 10 µM	≤ 10 µM	> 10 µM	–
C[C@H](Cc1nncn1C)c1cccc(N2Cc3c(cc(CN4CC[C@H](O)C4)cc3C(F)(F)F)C2=O)c1 [Compound 394, 6-(((S)-3-hydroxypyrrolidin-1-yl)methyl)-2-(3-((R)-1-(4-methyl-4H-1,2,4-triazol-3-yl)propan-2-yl)phenyl)-4-(trifluoromethyl)isoindolin-1-one]	< 0.1 µM	≤ 0.1 µM	< 0.1 µM	–
C[C@@H](Cc1nncn1C)c1cccc(NC(=O)c2cc3cc(N4CCN(C)C(=O)C4)ccc3cn2)c1 [Compound 210, (S)-6-(4-methyl-3-oxopiperazin-1-yl)-N-(3-(1-(4-methyl-4H-1,2,4-triazol-3-yl)propan-2-yl)phenyl)isoquinoline-3-carboxamide 2,2,2-trifluoroacetate]	3 to 10 µM	≤ 10 µM	3 to 10 µM	–
C=CCC(Sc1nncn1C)c1cccc(NC(=O)c2ccc3ccccc3n2)c1 (stereo not shown) [Compound 134, N-[3-[1-[(4-methyl-1,2,4-triazol-3-yl)sulfanyl]but-3-enyl]phenyl]quinoline-2-carboxamide]	1 to 3 µM	≤ 10 µM	> 10 µM	1 to 3 µM
C[C@@H](Cc1nncn1C)c1cc(F)cc(N2Cc3c(cccc3C(F)(F)F)C2=O)c1 [Compound 281b, 2-[3-Fluoro-5-[(1S)-1-methyl-2-(4-methyl-1,2,4-triazol-3-yl)ethyl]phenyl]-4-(trifluoromethyl)isoindolin-1-one]	3 to 10 µM	≤ 10 µM	0.1 to 0.3 µM	–
C[C@H](Cc1ncnn1C)c1cccc(N2Cc3c(cccc3C(F)(F)F)C2=O)c1 [Compound 264, (R)-2-(3-(1-(2-methyl-2H-1,2,4-triazol-3-yl)propan-2-yl)phenyl)-4-(trifluoromethyl)isoindolin-1-one]	3 to 10 µM	≤ 10 µM	> 10 µM	–
C[C@H](Cc1nncn1C)c1cccc(NC(=O)c2cc(C(=O)N3CCC4(COC4)C3)ccn2)c1 [Compound 233, N-[3-[(2R)-1-(4-methyl-4H-1,2,4-triazol-3-yl)propan-2-yl]phenyl]-4-[2-oxa-6-azaspiro[3.4]octane-6-carbonyl]pyridine-2-carboxamide]	3 to 10 µM	≤ 10 µM	3 to 10 µM	–
C[C@H](Sc1nncn1C)c1cccc(NC(=O)c2cccc3scnc23)c1 [Compound 88, N-[3-[(1 S)-1-[(4-methyl-1,2,4-triazol-3-yl)sulfanyl]ethyl]phenyl]-1,3-benzothiazole-4-carboxamide]	1 to 3 µM	≤ 10 µM	3 to 10 µM	–
C[C@H](Sc1nncn1C)c1ccnc(NC(=O)c2cccc(Cl)n2)c1 [Compound 124, 6-chloro-N-[4-[(LV)-1-[(4-methyl-1,2,4-triazol-3-yl)sulfanyl]ethyl]-2-pyridyl]pyridine-2-carboxamide]	1 to 3 µM	≤ 10 µM	3 to 10 µM	–
C[C@H](Cc1nncn1C)c1cccc(NC(=O)c2cc(N[C@@H]3CC[C@H](O)C3)ccn2)c1 [Compound 204, 4-((1R,3S)-3-hydroxycyclopentylamino)-N-(3-((R)-1-(4-methyl-4H-1,2,4-triazol-3-yl)propan-2-yl)phenyl)picolinamide]	1 to 3 µM	≤ 10 µM	1 to 3 µM	–
C[C@H](Sc1nncn1C)c1cccc(NC(=O)c2cc(C(=O)N3CCCCC3)ccn2)c1 [Compound 144, (S)-N-(3-(1-((4-methyl-4H-1,2,4-triazol-3-yl)thio)ethyl)phenyl)-4-(piperidine-1-carbonyl)picolinamide]	3 to 10 µM	≤ 10 µM	3 to 10 µM	–
CC(Sc1nncn1C)c1cc(NC[C@H](C)O)nc(N2Cc3c(cccc3C(F)(F)F)C2=O)c1 (stereo partly drawn) [Compound 177, 2-[6-[[(2S)-2-hydroxypropyl]amino]-4-[1-[(4-methyl-1,2,4-triazol-3-yl)sulfanyl]ethyl]-2-pyridyl]-4-(trifluoromethyl)iso-indolin-1-one]	3 to 10 µM	≤ 10 µM	3 to 10 µM	–
C[C@H](Cc1ncn(C)n1)c1cccc(N2Cc3c(cccc3C(F)(F)F)C2=O)c1 [Compound 263, (R)-2-(3-(1-(1-methyl-1H-1,2,4-triazol-3-yl)propan-2-yl)phenyl)-4-(trifluoromethyl)isoindolin-1-one]	3 to 10 µM	≤ 10 µM	3 to 10 µM	–
C[C@H](Sc1nncn1C)c1ccnc(NC(=O)c2cccc(OC(F)(F)F)n2)c1 [Compound 122, (S)-N-(4-(1-((4-methyl-4H-1,2,4-triazol-3-yl)thio)ethyl)pyridin-2-yl)-6-(trifluoromethoxy)picolinamide]	1 to 3 µM	≤ 10 µM	1 to 3 µM	–
C[C@@H](Cc1nncn1C)c1ccnc(N2Cc3c(cccc3C(F)(F)F)C2=O)c1 [Compound 304a, (S)-2-(4-(1-(4-methyl-4H-1,2,4-triazol-3-yl)propan-2-yl)pyridin-2-yl)-4-(trifluoromethyl)isoindolin-1-one]	3 to 10 µM	≤ 10 µM	> 10 µM	–
COc1c(C(=O)Nc2cccc([C@H](C)Sc3nncn3C)c2)cccc1C(F)(F)F [Compound 43, (S)-2-Methoxy-N-(3-(1-((4-methyl-4H-1,2,4-triazol-3-yl)thio)ethyl)phenyl)-3-(trifluoromethyl)benzamide]	3 to 10 µM	≤ 10 µM	> 10 µM	–
C[C@H](Sc1nncn1C)c1cccc(NC(=O)c2cc(C(=O)N3C[C@H](O)C[C@H]3C)ccn2)c1 [Compound 153, 4-((2R,4R)-4-hydroxy-2-methylpyrrolidine-1-carbonyl)-N-(3-((S)-1-((4-methyl-4H-1,2,4-triazol-3-yl)thio)ethyl)phenyl)picolinamide]	3 to 10 µM	≤ 10 µM	> 10 µM	–
C[C@H](Cc1nnco1)c1cccc(N2Cc3c(cccc3C(F)(F)F)C2=O)c1 [Compound 266, (R)-2-(3-(1-(1,3,4-oxadiazol-2-yl)propan-2-yl)phenyl)-4-(trifluoromethyl)isoindolin-1-one]	3 to 10 µM	≤ 10 µM	> 10 µM	–
C[C@H](Cc1nncn1C)c1cccc(NC(=O)c2cc(C(=O)N3CC[C@](C)(N)C3)ccn2)c1 [Compound 229, 4-((S)-3-amino-3-methylpyrrolidine-1-carbonyl)-N-(3-((R)-1-(4-methyl-4H-1,2,4-triazol-3-yl)propan-2-yl)phenyl)picolinamide]	1 to 3 µM	≤ 10 µM	1 to 3 µM	–
